Experimental data from publication PMC5107951 (Scientific Reports, 2016).
Where a SMILES comes first, the peptide text is derived from it. Bridges are numbered along the chain shown (N, C = ends).

Tests used:
α7 nAChR [1] = biological target: α7 nAChR (Rattus norvegicus, UniProt Q05941); assay: cell-based
α7 nAChR [2] = biological target: α7 nAChR (Homo sapiens, UniProt P36544); assay: cell-based; assay type: binding
Sequence of α7 nAChR (Homo sapiens, UniProt P36544) (P36544 23-502 limits assumed): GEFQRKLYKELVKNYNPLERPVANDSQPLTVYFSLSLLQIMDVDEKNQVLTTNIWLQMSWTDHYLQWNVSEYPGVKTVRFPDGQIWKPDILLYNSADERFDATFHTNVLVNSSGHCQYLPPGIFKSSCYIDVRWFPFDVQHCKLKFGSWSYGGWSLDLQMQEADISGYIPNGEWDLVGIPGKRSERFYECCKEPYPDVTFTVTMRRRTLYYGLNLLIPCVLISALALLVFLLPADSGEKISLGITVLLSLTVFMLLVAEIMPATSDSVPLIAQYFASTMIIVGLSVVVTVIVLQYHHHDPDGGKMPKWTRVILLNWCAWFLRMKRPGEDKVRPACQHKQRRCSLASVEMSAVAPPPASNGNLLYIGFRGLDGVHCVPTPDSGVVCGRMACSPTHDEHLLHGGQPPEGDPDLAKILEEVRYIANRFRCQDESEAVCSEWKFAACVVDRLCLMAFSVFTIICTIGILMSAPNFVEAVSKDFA

Sequence of α7 nAChR (Rattus norvegicus, UniProt Q05941) (Q05941 23-502 limits assumed): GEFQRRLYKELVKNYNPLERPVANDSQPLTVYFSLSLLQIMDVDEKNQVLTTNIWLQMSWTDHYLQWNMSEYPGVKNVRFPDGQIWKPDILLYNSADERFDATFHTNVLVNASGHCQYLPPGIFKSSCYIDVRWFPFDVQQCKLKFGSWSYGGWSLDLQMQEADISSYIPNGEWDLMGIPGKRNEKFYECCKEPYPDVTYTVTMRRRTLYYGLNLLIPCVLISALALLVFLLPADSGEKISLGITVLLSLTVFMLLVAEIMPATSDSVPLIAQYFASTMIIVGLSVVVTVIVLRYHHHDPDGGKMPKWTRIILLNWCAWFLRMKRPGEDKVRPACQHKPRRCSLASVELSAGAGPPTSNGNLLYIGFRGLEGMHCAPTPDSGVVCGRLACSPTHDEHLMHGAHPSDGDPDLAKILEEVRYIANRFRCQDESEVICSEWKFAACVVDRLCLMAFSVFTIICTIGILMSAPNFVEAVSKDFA

With `CC(C)C[C@@H]1NC(=O)[C@H](CCCNC(=N)N)NC(=O)[C@@H]2CSSC[C@H](NC(=O)CN)C(=O)N[C@@H](CSSC[C@@H](C(N)=O)NC(=O)[C@H](Cc3ccc(O)cc3)NC(=O)[C@H](CCCNC(=N)N)NC(=O)[C@@H]3CCCN3C(=O)[C@H](CC(N)=O)NC(=O)[C@H](CC(N)=O)NC1=O)C(=O)N[C@@H](CO)C(=O)N[C@@H](CCCNC(=N)N)C(=O)N1CCC[C@H]1C(=O)N1CCC[C@H]1C(=O)N2` [PnIA[R5, R9, L10, R14]] (H-GCCSRPPCRLNNPRYC-NH2; disulfide 2-8, 3-16) the IC50 (α7 nAChR [1]) was 17 ± 2 nM.

`CC(C)C[C@@H]1NC(=O)[C@H](CCCNC(=N)N)NC(=O)[C@@H]2CSSC[C@H](NC(=O)CN)C(=O)N[C@@H](CSSC[C@@H](C(N)=O)NC(=O)[C@H](Cc3ccc(O)cc3)NC(=O)[C@H](CC(=O)O)NC(=O)[C@@H]3CCCN3C(=O)[C@H](CC(N)=O)NC(=O)[C@H](CC(N)=O)NC1=O)C(=O)N[C@@H](CO)C(=O)N[C@@H](CC(C)C)C(=O)N1CCC[C@H]1C(=O)N1CCC[C@H]1C(=O)N2` [PnIA[R9, L10]] (H-GCCSLPPCRLNNPDYC-NH2; disulfide 2-8, 3-16) was tested, and the “displacement of [125I]-PnIA[R9, L10] by non-radioactive peptide” value (α7 nAChR [2]) was 100% and the IC50 (α7 nAChR [1]) was 27 ± 11 nM.

Molecule `CC(C)C[C@@H]1NC(=O)[C@H](CO)NC(=O)[C@@H]2CSSC[C@@H](C(N)=O)NC(=O)[C@H](Cc3ccc(O)cc3)NC(=O)[C@H](CC(=O)O)NC(=O)[C@@H]3CCCN3C(=O)[C@H](CC(N)=O)NC(=O)[C@H](CC(N)=O)NC(=O)[C@H](C)NC(=O)[C@H](CCCNC(=N)N)NC(=O)[C@H](CSSC[C@H](NC(=O)CN)C(=O)N2)NC(=O)[C@@H]2CCCN2C(=O)[C@@H]2CCCN2C1=O` [PnIA[R9]] (H-GCCSLPPCRANNPDYC-NH2; disulfide 2-8, 3-16) has an IC50 (α7 nAChR [2]) of 1490 nM and an IC50 (α7 nAChR [1]) of 27 ± 10 nM.
